Where two headings read alike, the source gives them in different places.
What was measured:
5HT2C receptors = target: T1, 5HT2C receptors (Homo sapiens, UniProt P28335); assay: Human 5-HT2C functional high throughput screening assay in CHO-K1 cells (calcium flux); format: cell-based; design: expressed in transfected cells; host or cells: CHO-K1 cells; conditions: for EC50: CHO-K1 cells, calcium flux; for Emax: CHO-K1, 5-HT2C, maximum functional response as percentage relative to the effect of serotonin
T1 sequence (P28335 33-458): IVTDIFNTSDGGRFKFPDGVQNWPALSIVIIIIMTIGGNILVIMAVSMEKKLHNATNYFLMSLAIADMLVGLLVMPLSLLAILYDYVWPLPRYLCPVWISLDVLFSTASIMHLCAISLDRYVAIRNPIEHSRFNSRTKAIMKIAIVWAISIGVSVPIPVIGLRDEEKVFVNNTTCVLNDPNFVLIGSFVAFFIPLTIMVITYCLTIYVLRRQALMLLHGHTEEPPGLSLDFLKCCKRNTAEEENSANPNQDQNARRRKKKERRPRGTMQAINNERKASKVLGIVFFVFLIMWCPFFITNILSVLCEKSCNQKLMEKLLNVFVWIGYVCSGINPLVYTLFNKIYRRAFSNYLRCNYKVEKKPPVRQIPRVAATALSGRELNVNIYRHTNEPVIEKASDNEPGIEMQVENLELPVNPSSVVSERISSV
Experimental: (§1) (iii) Human 5-HT2C and 5-HT2B Functional High Throughput Screening Assays in CHO-K1 Cells
(§2) CHO-K1 cells over-expressing 5HT2C or 5HT2B receptors were grown in 1272 cm^2 flasks to 70-80% confluency in UltraCHO media (Lonza, Walkersville, Md.) supplemented with 1% dialyzed fetal bovine serum (FBS), 250 μg/mL zeocin, 100 U/mL penicillin and 100 μg/mL streptomycin, and 400 μg/mL geneticin. The cells were dissociated from the flasks using 0.05% trypsin, resuspended in Recovery™ cell culture freezing medium (Invitrogen, Carlsbad, Calif.) and stored in liquid nitrogen until use. The calcium flux experiments were done using frozen cells. The cells were diluted in media containing 1% dialyzed FBS and 100 U/mL penicillin and 100 μg/mL streptomycin and plated into 384-well poly-D-Lysine coated plates (15,000 cells/well). Then the plates were incubated overnight in a cell incubator at 37° C., 5% CO2. On the next day, the growth media was replaced with media without FBS and further incubated overnight. On day three, the changes in intracellular Ca^2+ were determined using calcium sensitive fluorescent dye, Ca4 (MDS Analytical Technologies, Sunnyvale, Calif.) by loading 15 μL of diluted dye in Hank's Balanced Salt Solution and 20 mM Hepes buffer (pH 7.4) with final concentration of 2.5 mM probenecid into the cells containing media. Then the cells were incubated at room temperature for 60 minutes in dark.
(§3) After incubation, the cell plates were transferred to FLIPR™ (MDS) and their fluorescence measurements were read at an excitation wavelength of 480 nm and an emission wavelength of 530 nm at 25° C. The baseline fluorescence was measured for the first 10 seconds and then 15 μL of 4× concentration of serotonin/test compound was added to the cells. The fluorescence intensity was captured every second for the first 1 minute followed by every 5 seconds for an additional 2 minutes. The increase in fluorescent response by a test compound was normalized to the response of serotonin and used to determine agonist activity. The concentration response of compounds was done from a starting concentration of 10 μM, 1:10 dilution across 6 wells with a final dimethyl sulfoxide concentration of 0.2% and was fitted using a 4-parameter logistic equation. The concentration at which a compound exerts half its maximal effect was named as ‘effective concentration 50’ or ‘EC50’. Emax is the maximum functional response or efficacy expressed as a percentage relative to the effect of serotonin.

5HT2B receptors = target: T2, 5HT2B receptors (Homo sapiens, UniProt P41595); assay: Human 5-HT2B functional high throughput screening assay in CHO-K1 cells (calcium flux); format: cell-based; conditions: for EC50: CHO-K1 cells, calcium flux
T2 construct: expressed in transfected cells; host or cells: CHO-K1 cells
T2 sequence (P41595 whole entry): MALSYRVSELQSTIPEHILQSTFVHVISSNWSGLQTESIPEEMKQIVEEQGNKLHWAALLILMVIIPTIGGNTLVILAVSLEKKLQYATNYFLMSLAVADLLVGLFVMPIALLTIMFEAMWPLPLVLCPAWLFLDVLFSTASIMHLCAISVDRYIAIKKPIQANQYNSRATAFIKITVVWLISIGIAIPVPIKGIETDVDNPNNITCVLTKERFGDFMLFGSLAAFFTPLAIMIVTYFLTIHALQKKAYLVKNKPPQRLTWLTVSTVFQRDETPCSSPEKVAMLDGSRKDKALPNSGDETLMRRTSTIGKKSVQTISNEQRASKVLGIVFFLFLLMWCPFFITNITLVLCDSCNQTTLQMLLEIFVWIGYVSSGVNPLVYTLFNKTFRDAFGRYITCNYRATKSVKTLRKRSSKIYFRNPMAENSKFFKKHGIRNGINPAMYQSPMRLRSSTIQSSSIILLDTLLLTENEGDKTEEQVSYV
Experimental: as §1, §2, §3; call rule not given here

[1] = 5-HT2C agonist activity, read-out: EC50
[2] = 5-HT2B agonist activity, read-out: EC50
[3] = 5-HT2B, maximum functional response as percentage relative to the effect of serotonin
[4] = CHO-K1, 5-HT2B, maximum functional response as percentage relative to the effect of serotonin, read-out: Emax

Row | EC50 (5HT2C receptors; [1]) | Emax (5HT2C receptors; read-out: Emax) | EC50 (5HT2B receptors; [2]) | Emax (5HT2B receptors; [3]) | Emax (5HT2B receptors; [4]) | Structure (SMILES) | Emax (5HT2C receptors) | EC50 (5HT2C receptors; EC50, 5-HT2C agonist activity) | Emax (5HT2B receptors; CHO-K1) | EC50 (5HT2B receptors; EC50, 5-HT2B agonist activity)
1 | 4.2 nM | > 120% | > 10000 nM | inactive | – | Cc1ccc(-c2ccc3c(c2)C(=O)NC[C@@H]2CN(C)C[C@@H]32)cc1 (relative stereo) [Example 82, Trans-2-methyl-8-p-tolyl-1,2,3,3a,4,5-hexahydrobenzo[e]pyrrolo[3,4-c]azepin-6(10bH)-one] | – | – | – | –
2 | 3 nM | 105% | > 10000 nM | inactive | – | CCS(=O)(=O)c1cccc(-c2ccc3c(c2)C(=O)NC[C@@H]2CNC[C@@H]32)c1 (relative stereo) [Example 250, Trans-8-(3-(ethylsulfonyl)phenyl)-1,2,3,3a,4,5-hexahydrobenzo[c]pyrrolo[3,4-e]azepin-6(10bH)-one] | – | – | – | –
3 | 200 nM | > 120% | > 10000 nM | inactive | – | CN1C[C@H]2CNC(=O)c3cc(-c4ccc(S(C)(=O)=O)cc4)ccc3[C@@H]2C1 (relative stereo) [Example 83, Trans-2-methyl-8-(4-(methylsulfonyl)phenyl)-1,2,3,3a,4,5-hexahydrobenzo[e]pyrrolo[3,4-c]azepin-6(10bH)-one] | – | – | – | –
4 | – | – | – | – | – | Fc1ccc(F)c2c1OCC[C@H]1CNC[C@H]21 (relative stereo) [Example 289, Trans-7,10-difluoro-2,3,3a,4,5,10b-hexahydro-1H-[1]benzoxepino[4,5-c]pyrrole] | 90% | 7 nM | 95% | 100 nM
5 | – | – | – | – | – | Brc1cccc2c1OCC[C@H]1CNC[C@H]21 (relative stereo) [Example 383, Trans-7-bromo-2,3,3a,4,5,10b-hexahydro-1H-[1]benzoxepino[4,5-c]pyrrole] | 105% | 0.04 nM | 100% | 6 nM
6 | 800 nM | 70% | > 10000 nM | inactive | – | CN1C[C@@H]2CCOc3c(-c4ccc(F)cc4)cccc3[C@H]2C1 (relative stereo) [Example 400, Trans-7-(4-fluorophenyl)-2-methyl-2,3,3a,4,5,10b-hexahydro-1H-[1]benzoxepino[4,5-c]pyrrole] | – | – | – | –
7 | – | – | – | – | – | Cc1cccc2c1OCC[C@H]1CNC[C@H]21 (relative stereo) [Example 291, Trans-7-methyl-2,3,3a,4,5,10b-hexahydro-1H-[1]benzoxepino[4,5-c]pyrrole] | 95% | 0.4 nM | 60% | 10 nM
8 | 100 nM | 85% | > 10000 nM | inactive | – | COc1ccc(S(=O)(=O)N2Cc3cccnc3[C@@H]3CNC[C@H]3C2)cc1 (relative stereo) [Example 346, Trans-6-[(4-methoxyphenyl)sulfonyl]-5,6,7,7a,8,9,10,10a-octahydropyrido[3,2-c]pyrrolo[3,4-e]azepine] | – | – | – | –
9 | 1000 nM | 110% | 4000 nM | – | 40% | O=C1NC[C@@H]2CN(Cc3ccccc3)C[C@H]2c2c1sc1ccccc21 (relative stereo) [Example 97, Trans-2-benzyl-2,3,3a,4,5,11c-hexahydro[1]benzothieno[2,3-c]pyrrolo[3,4-e]azepin-6(1H)-one] | – | – | – | –
10 | – | – | – | – | – | CN1C[C@H]2CNC(=O)c3cccc(F)c3[C@@H]2C1 (relative stereo) [Example 89, Trans-10-fluoro-2-methyl-1,2,3,3a,4,5-hexahydrobenzo[e]pyrrolo[3,4-c]azepin-6(10bH)-one] | > 120% | 11.5 nM | 33% | 560 nM
11 | – | – | – | – | – | Clc1cccc2c1OCC[C@H]1CNC[C@H]21 (relative stereo) [Example 376, Trans-7-chloro-2,3,3a,4,5,10b-hexahydro-1H-[1]benzoxepino[4,5-c]pyrrole] | 90% | 0.2 nM | 70% | 200 nM
12 | 0.3 nM | 95% | > 10000 nM | inactive | – | O=C1NC[C@@H]2CNC[C@H]2c2ccc(-c3ccsc3Cl)cc21 (relative stereo) [Example 385, Trans-8-(2-chloro-3-thienyl)-2,3,3a,4,5,10b-hexahydropyrrolo[3,4-d][2]benzazepin-6(1H)-one] | – | – | – | –
13 | 20 nM | 85% | 900 nM | – | 25% | O=S(=O)(c1ccc(OC(F)F)cc1)N1Cc2cccnc2[C@@H]2CNC[C@H]2C1 (relative stereo) [Example 335, Trans-6-{[4-(difluoromethoxy)phenyl]sulfonyl}-5,6,7,7a,8,9,10,10a-octahydropyrido[3,2-e]pyrrolo[3,4-e]azepine] | – | – | – | –
14 | 10 nM | > 120% | > 10000 nM | inactive | – | CN1C[C@H]2CNC(=O)c3cc(-c4ccc5nonc5c4)ccc3[C@@H]2C1 (relative stereo) [Example 195, Trans-8-(benzo[c][1,2,5]oxadiazol-5-yl)-2-methyl-1,2,3,3a,4,5-hexahydrobenzo[e]pyrrolo[3,4-c]azepin-6(10bH)-one] | – | – | – | –
15 | 1 nM | 120% | > 10000 nM | inactive | – | CN1C[C@H]2CNC(=O)c3cc(-c4cccc(C(C)(O)C(F)(F)F)c4)ccc3[C@@H]2C1 (relative stereo) [Example 185, Trans-2-methyl-8-(3-(1,1,1-trifluoro-2-hydroxypropan-2-yl)phenyl)-1,2,3,3a,4,5-hexahydrobenzo[e]pyrrolo[3,4-c]azepin-6(10bH)-one] | – | – | – | –
16 | – | – | – | – | – | COc1ccc2c(c1)C(=O)N(C)C[C@@H]1CNC[C@@H]21 (relative stereo) [Example 188, Trans-8-methoxy-5-methyl-1,2,3,3a,4,5-hexahydrobenzo[e]pyrrolo[3,4-c]azepin-6(10bH)-one] | > 120% | 60 nM | 90% | 1000 nM

Row | Structure (SMILES) | EC50 (5HT2C receptors; [1]) | Emax (5HT2C receptors; read-out: Emax) | EC50 (5HT2B receptors; [2]) | Emax (5HT2B receptors; [3]) | Emax (5HT2B receptors; [4]) | Emax (5HT2C receptors) | EC50 (5HT2C receptors; EC50, 5-HT2C agonist activity) | Emax (5HT2B receptors; CHO-K1) | EC50 (5HT2B receptors; EC50, 5-HT2B agonist activity)
17 | CC(C)CNc1ccc2c(c1)C(=O)NC[C@@H]1CN(C)C[C@@H]21 (relative stereo) [Example 297, Trans-8-(isobutylamino)-2-methyl-2,3,3a,4,5,10b-hexahydropyrrolo[3,4-d][2]benzazepin-6(1H)-one] | – | – | – | inactive | – | 80% | 100 nM | – | > 10000 nM
18 | CC(C)COc1cccc(-c2ccc3c(c2)C(=O)NC[C@@H]2CN(C)C[C@@H]32)c1 (relative stereo) [Example 134, Trans-8-(3-isobutoxyphenyl)-2-methyl-1,2,3,3a,4,5-hexahydrobenzo[e]pyrrolo[3,4-c]azepin-6(10bH)-one] | 60 nM | > 120% | > 10000 nM | inactive | – | – | – | – | –
19 | COc1ccc2c(c1)C(=O)N(C)C[C@@H]1CN(C)C[C@@H]21 (relative stereo) [Example 190, Trans-8-methoxy-2,5-dimethyl-1,2,3,3a,4,5-hexahydrobenzo[e]pyrrolo[3,4-c]azepin-6(10bH)-one] | – | – | – | inactive | – | > 120% | 100 nM | – | > 10000 nM
20 | O=C1NC[C@@H]2CN(Cc3ccccc3)C[C@H]2c2cccnc21 (relative stereo) [Example 154, Trans-2-benzyl-1,2,3,3a,4,5-hexahydropyrido[3,2-e]pyrrolo[3,4-c]azepin-6(10bH)-one] | 2000 nM | – | > 10000 nM | inactive | – | 90% | – | – | –

Reference: patent US8846951B2 (AbbVie Inc., priority 2009, dated 2014)
